What all share (assay type): cell-based
For one test, the system named is cellular cAMP production. Put plainly: Cellular cAMP assayed in CHO-K1 cells, basal and forskolin-stimulated. The following applies: 10 μM; 20 μM forskolin. On the procedure: FIG. 3A: Apical membrane current measured in CFTR-expressing FRT cells in the presence of a transepithelial chloride gradient and with amphotericin B permeabilization of the basolateral membrane. CFTR was activated by CPT-cAMP (chlorophenylthio-cAMP) (100 μM), with increasing concentrations of PPQ-102 added as shown. Left: Original recording. Right: Dose-response (S.E. n=4). FIG. 3B: Measurements as in FIG. 3A, but with apigenin (100 μM) or IBMX (100 μM) as agonists. The data are representative of 3 sets of experiments. FIG. 3C: Short-circuit current measured in T84 (left) and human bronchial airway epithelial cells (right). CFTR was maximally activated by 10 μM forskolin and 100 μM IBMX (‘forsk’). Current in the absence of inhibitor is indicated as ‘control.’ FIG. 3D: Calcium-activated chloride channels were activated by UTP (100 μM) in cystic fibrosis (CFTR-deficient) human bronchial epithelial cells, with PPQ-102 added as indicated. ENaC (epithelial sodium channel) was inhibited by amiloride (10 μM). FIG. 3E: Cellular cAMP assayed in CHO—K1 cells under basal conditions and after addition of 20 μM forskolin (S.E. n=4, differences with PPQ-102, not significant).
(In general: Cyclic AMP is a second messenger, typically raised through Gs and lowered through Gi signalling.)

For test [1], the target named is T1, human wildtype CFTR (Homo sapiens, UniProt P13569).
T1 construct: expressed in transfected cells; host or cells: Fischer rat thyroid (FRT) cells
T1 sequence (P13569 whole entry): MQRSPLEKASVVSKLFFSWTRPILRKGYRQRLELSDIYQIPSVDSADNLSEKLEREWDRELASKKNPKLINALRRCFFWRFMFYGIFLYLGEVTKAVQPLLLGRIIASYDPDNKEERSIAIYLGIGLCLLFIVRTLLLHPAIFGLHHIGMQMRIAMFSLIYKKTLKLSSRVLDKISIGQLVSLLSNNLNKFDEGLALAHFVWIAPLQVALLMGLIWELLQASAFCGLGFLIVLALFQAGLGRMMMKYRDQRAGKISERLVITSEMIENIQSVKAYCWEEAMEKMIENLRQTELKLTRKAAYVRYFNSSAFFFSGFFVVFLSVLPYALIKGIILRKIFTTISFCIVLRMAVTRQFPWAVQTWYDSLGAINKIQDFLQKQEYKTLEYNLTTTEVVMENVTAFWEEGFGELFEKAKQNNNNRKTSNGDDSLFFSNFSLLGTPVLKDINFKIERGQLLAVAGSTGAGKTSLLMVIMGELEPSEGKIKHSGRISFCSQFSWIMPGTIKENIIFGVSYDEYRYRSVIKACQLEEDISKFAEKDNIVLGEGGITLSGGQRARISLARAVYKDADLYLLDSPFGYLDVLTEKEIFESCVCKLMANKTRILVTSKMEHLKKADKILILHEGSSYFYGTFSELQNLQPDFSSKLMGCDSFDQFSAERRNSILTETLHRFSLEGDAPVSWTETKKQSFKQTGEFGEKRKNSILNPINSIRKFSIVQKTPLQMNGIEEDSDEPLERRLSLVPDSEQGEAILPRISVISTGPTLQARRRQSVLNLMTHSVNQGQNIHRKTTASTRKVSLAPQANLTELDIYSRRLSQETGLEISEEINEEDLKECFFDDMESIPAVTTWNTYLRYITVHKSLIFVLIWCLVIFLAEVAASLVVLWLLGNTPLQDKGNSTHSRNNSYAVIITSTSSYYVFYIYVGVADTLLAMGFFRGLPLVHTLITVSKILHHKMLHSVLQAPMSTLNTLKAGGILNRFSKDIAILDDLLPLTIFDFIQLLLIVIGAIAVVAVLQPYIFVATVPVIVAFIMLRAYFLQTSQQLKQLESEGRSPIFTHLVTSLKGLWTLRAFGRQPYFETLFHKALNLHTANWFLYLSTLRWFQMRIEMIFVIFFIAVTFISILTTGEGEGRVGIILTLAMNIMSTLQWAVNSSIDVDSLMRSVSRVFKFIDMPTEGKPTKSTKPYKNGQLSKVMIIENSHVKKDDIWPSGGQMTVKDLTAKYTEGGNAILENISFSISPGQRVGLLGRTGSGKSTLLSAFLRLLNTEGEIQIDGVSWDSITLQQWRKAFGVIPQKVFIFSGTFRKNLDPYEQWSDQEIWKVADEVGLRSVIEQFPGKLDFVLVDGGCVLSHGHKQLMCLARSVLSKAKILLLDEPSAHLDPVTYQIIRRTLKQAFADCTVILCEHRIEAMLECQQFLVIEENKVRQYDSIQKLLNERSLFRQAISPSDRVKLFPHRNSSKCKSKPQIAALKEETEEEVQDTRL
The test can be described thus: Whole-cell patch-clamp in CFTR-expressing FRT cells. The following applies: 0.5 μM; voltage-independent block. On the procedure: D. Patch-Clamp Analysis—Whole cell recordings were performed using FRT cells stably expressing human wildtype CFTR. The pipette solution contained 140 mM N-methyl D-glucamine chloride (NMDG-Cl), 5 mM EGTA, 1 mM MgCl2, 1 mM Tris-ATP, and 10 mM HEPES (pH 7.2), and the bath solution contained 140 mM N-methyl D-glucamine chloride, 1 mM CaCl2, 1 mM MgCl2, 10 mM glucose and 10 mM HEPES (pH 7.4). Experiments were performed at room temperature (22-25° C.). Pipettes were pulled from borosilicate glass and had resistances of 3-5 Mohm after fire polishing. […] After establishing the whole-cell configuration, CFTR was activated by adding forskolin and 3-isobutyl-1-methylxanthine (IBMX). Whole cell currents were elicited by applying hyperpolarizing and depolarizing voltage pulses from a holding potential of 0 mV to potentials between −100 mV and +100 mV in steps of 20 mV. Current was filtered at 5 kHz and digitized and analyzed using an AxoScope 10.0 system and a Digidata® 1440A AC/DC converter (Molecular Devices, Sunnyvale, Calif.). The single channel characteristics of CFTR were analyzed in the cell-attached configuration using fire-polished pipettes with a resistance of 10-15 Mohm. […] Single channel data were digitally filtered at 25 Hz, and analyzed using Clampfit 10.0 software (Axon Instruments).
For orientation: The patch-clamp technique gives a direct electrical read-out from membranes.

The target in test [2] is T1, human wildtype CFTR. The test can be described thus: Single-channel cell-attached patch recordings of CFTR. Conditions: 1 μM. On the procedure:
D. Patch-Clamp Analysis—Whole cell recordings were performed using FRT cells stably expressing human wildtype CFTR. The pipette solution contained 140 mM N-methyl D-glucamine chloride (NMDG-Cl), 5 mM EGTA, 1 mM MgCl2, 1 mM Tris-ATP, and 10 mM HEPES (pH 7.2), and the bath solution contained 140 mM N-methyl D-glucamine chloride, 1 mM CaCl2, 1 mM MgCl2, 10 mM glucose and 10 mM HEPES (pH 7.4). Experiments were performed at room temperature (22-25° C.). Pipettes were pulled from borosilicate glass and had resistances of 3-5 Mohm after fire polishing. […] After establishing the whole-cell configuration, CFTR was activated by adding forskolin and 3-isobutyl-1-methylxanthine (IBMX). Whole cell currents were elicited by applying hyperpolarizing and depolarizing voltage pulses from a holding potential of 0 mV to potentials between −100 mV and +100 mV in steps of 20 mV. Current was filtered at 5 kHz and digitized and analyzed using an AxoScope 10.0 system and a Digidata® 1440A AC/DC converter (Molecular Devices, Sunnyvale, Calif.). The single channel characteristics of CFTR were analyzed in the cell-attached configuration using fire-polished pipettes with a resistance of 10-15 Mohm. The pipette solution contained (in mM): 140 NMDG-Cl, 1 CaCl2, 1 MgCl2, 5 glucose and 10 HEPES (pH 7.4), and the bath solution contained 140 KCl, 1 CaCl2, 1 MgCl2, 5 glucose and 10 HEPES (pH 7.4). Recordings were performed at room temperature using an Axopatch-200B (Axon Instruments, Foster City, Calif.). The voltage and current data were low-pass filtered at 1 kHz and stored for later analysis. Single channel data were digitally filtered at 25 Hz, and analyzed using Clampfit 10.0 software (Axon Instruments).
Cell-attached patch recordings were performed to examine single-channel CFTR function.

On to `Cc1ccc(C2Nc3ccccc3-n3c(-c4ccccc4)c4c(=O)n(C)c(=O)n(C)c4c32)o1` (racemic) [PPQ-102, 7,9-Dimethyl-11-phenyl-6-(5-methylfuran-2-yl)-5,6-dihydro-pyrimido[4′,5′-3,4]pyrrolo[1,2-a]quinoxaline-8,10-(7H,9H)-dione], for which the “effect on basal or forskolin-stimulated cAMP production” value in the test with cellular cAMP production was “no significant effect”. Moreover, the “CFTR current-voltage relationship after addition” value at human wildtype CFTR [1] is reported as “remained linear”. Moreover, on human wildtype CFTR [2], the “Mean channel open time” value was “did not significantly change” and the “mean channel closed time” value was “greatly increased”. In addition, the “Channel open probability (Po)” value at human wildtype CFTR [2] (control 0.50±0.04, forskolin and IBMX, +80 mV) is recorded as 0.14±0.03. Moreover, on human wildtype CFTR [2] (control 7 pS at +80 mV), the unitary conductance result was “did not change”.

The record behind these values is patent publication US8609661B2, “Pyrimido-pyrrolo-quinoxalinedione inhibitors of cystic fibrosis transmembrane conductance regulator protein and uses therefor” (The Regents of the University of California, priority 2009, dated 2013).
